Data from article PMC8125234, “Cardiolipin Stabilizes and Increases Catalytic Efficiency of Carnitine Palmitoyltransferase II and Its Variants S113L, P50H, and Y479F” (International Journal of Molecular Sciences, 2021).
Residue numbers refer to the chain shown, from its start.

Experiments:
Assay in all cases: nanoDSF protein stability in presence of CL or β-OG
Format in all cases: binding
CPT II WT = target: T1, CPT II WT (Homo sapiens, UniProt P23786)
T1 construct: made in house; host or cells: Escherichia coli BL21Gold DE
T1 sequence (P23786 26-658): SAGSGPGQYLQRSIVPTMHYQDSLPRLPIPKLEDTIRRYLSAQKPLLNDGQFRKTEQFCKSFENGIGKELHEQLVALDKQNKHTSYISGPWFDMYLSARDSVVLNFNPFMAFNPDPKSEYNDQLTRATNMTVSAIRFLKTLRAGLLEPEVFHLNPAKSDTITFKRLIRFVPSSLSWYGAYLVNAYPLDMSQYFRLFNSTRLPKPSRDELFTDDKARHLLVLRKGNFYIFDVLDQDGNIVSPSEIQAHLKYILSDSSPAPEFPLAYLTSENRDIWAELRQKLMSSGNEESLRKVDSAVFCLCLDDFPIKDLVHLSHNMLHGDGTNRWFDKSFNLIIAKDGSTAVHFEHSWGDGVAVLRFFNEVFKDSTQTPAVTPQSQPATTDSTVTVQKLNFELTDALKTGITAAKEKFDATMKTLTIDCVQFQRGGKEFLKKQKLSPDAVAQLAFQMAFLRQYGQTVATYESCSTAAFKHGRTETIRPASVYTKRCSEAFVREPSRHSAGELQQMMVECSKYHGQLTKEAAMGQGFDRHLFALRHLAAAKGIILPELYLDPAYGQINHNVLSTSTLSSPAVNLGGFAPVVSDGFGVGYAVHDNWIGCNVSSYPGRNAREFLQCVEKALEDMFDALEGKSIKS
Procedure: (§1) NanoDSF is a standard method for the investigation of the folding/unfolding of proteins and the interaction of proteins with effectors/ligands/substrates
(§2) The protein stability was investigated applying nano differential scanning fluorimetry (nanoDSF) using a protein concentration of 1 mg/mL in assay buffer. […] The heating rate has been set to 1 °C per min. A heating ramp from 15 to 95 °C was determined. The nanoDSF data were obtained using a Prometheus NT.48 device. First derivatives were calculated using PR.ThermControl software (NanoTemper Technologies GmbH, Munich, Germany). Experiments were performed at least three times independently as double determination.

CPT II variant S113L = target: T2, CPT II variant S113L (Homo sapiens, UniProt P23786, S113L)
T2 construct: made in house; host or cells: Escherichia coli BL21Gold DE
T2 sequence (P23786 26-658 S113L): T1 sequence (P23786 26-658) with S88L
Procedure: as §1, §2

CPT II variant P50H = target: T3, CPT II variant P50H (Homo sapiens, UniProt P23786, P50H)
T3 construct: made in house; host or cells: Escherichia coli BL21Gold DE
T3 sequence (P23786 26-658 P50H): T1 sequence (P23786 26-658) with P25H
Procedure: as §1, §2

CPT II variant Y479F = target: T4, CPT II variant Y479F (Homo sapiens, UniProt P23786, Y479F)
T4 construct: made in house; host or cells: Escherichia coli BL21Gold DE
T4 sequence (P23786 26-658 Y479F): T1 sequence (P23786 26-658) with Y454F
Procedure: as §1, §2

[1] = reference TM of WT in buffer (ΔTM = 0 °C)

Increase of ΔTM-value due to the addition of CL (CPT II WT; 0.25 mM CL): +10 °C
TM in Buffer with 0.25 mM CL (CPT II WT; 1 mg/mL protein): 47.6 °C
∆TM in Buffer with 0.25 mM CL (CPT II WT; [1]): 10.6 °C
Increase of ΔTM-value due to the addition of CL (CPT II variant S113L; 0.25 mM CL): +10 °C
∆TM in Buffer with 0.25 mM CL (CPT II variant S113L; [1]): 6.5 ± 0.2 °C
Increase of ΔTM-value due to the addition of CL (CPT II variant P50H; 0.25 mM CL): +13 °C
TM in Buffer with 0.25 mM CL (CPT II variant P50H; 1 mg/mL protein): 40.2 ± 0.7 °C
∆TM in Buffer with 0.25 mM CL (CPT II variant P50H; [1]): 3.3 ± 0.1 °C
Increase of ΔTM-value due to the addition of CL (CPT II variant Y479F; 0.25 mM CL): +10 °C
TM in Buffer with 0.25 mM CL (CPT II variant Y479F; 1 mg/mL protein): 45.9 ± 1.0 °C
∆TM in Buffer with 0.25 mM CL (CPT II variant Y479F; [1]): 9.0 ± 0.1 °C
Substance: Cardiolipin [CL]
